Converted amounts (≈) assume the structure as drawn. Like-named read-outs stand apart in the source and are kept apart here.
What was measured:
[1] = test system: HBeAg; format: cell-based, hepatitis B virus
[2] = test system: HBsAg; format: cell-based, hepatitis B virus
[3] = test system: MT4 cells; test: Toxicity of compounds on MT4 cells (MTT method); format: cell-based; details: 6 days
Method: MT4 cells are cultured in 96-well plates (2×10^5 cells/ml, 0.1 ml/well) and the verifying compounds are added and compared against the positive control sample AZT, and the normal cell control group at the same time. Comparisons against DMSO control group and MT4 cell control group are also performed. The culture is maintained at 37° C., 5 percent CO2 for 6 days. The cell activities are tested by the MTT method to determine TC50.

[4] = test system: HIV-1 III B; test: Inhibition of HIV-induced MT4 cell pathological effects (CPE); format: cell-based; details: for IC50: 50 percent effective concentration, CPE in MT4 cells, 72 hours
Method: HIV-1 III B comes from the USA; MT4 cell line comes from Japan.
To determine viral toxicity, HIV are diluted 10 fold in 8 serial [Chinese version is unclear, and this is an educated guess] and MT4 cell pathological effects are then observed in the culture solution of RPMI-1640. Calculated TCID50 is 10-6. The normal cell control group and virus control group are also performed. The samples with five concentrations per group that are diluted by 2 times and 100 μl AZT are added in cell or virus cultures. All concentrations of samples are performed in three repeated wells. The experiments are maintained at 37° C., 5 percent CO2 for 72 hours. Then the cell pathological effects (CPE) are observed under an inverted microscope. IC50 and selective index SI (TC50/IC50) are calculated in Table 7.

[5] = test system: influenza A1 virus; test: Anti-influenza virus experiment in MDCK cells; format: cell-based; details: for IC50: 72 h, MDCK cells, 3 days
[6] = test system: cell Hep G2 2.2.15; test: Toxicity to cell Hep G2 2.2.15 (MTT method); format: cell-based, human
[7] = test system: acute liver injury induced by thioacetamide; test: Model of acute liver injury induced by thioacetamide in mice; format: in vivo, Kunming mice; details: thioacetamide 30 mg/kg, X ± SD, n = 20; for ALT / AST: blood 24 hours after final dose
Method: The model of acute liver injury induced by thioacetamide in mice Experimental animals: Kunming mice, male or female, weighing 19-22 g, are used in the study. Animals are housed in an animal room with a natural photoperiod and room temperature (23±2° C.), and maintained with free access to standard rodent pellet food and water ad libitum. […] All mice are randomly divided to 7 groups. […] Then all groups are successively dosed three times at an interval of 3 hours, 6 hours and 9 hours after being infected, and the blood samples were obtained at 24 hours (i.e. the next day) after the final dose. The follow markers and liver weight were measured and also the pathological examination were performed (Table 2).

[8] = test system: acute hepatic toxicity induced by carbon tetrachloride; test: Model of acute hepatic toxicity induced by carbon tetrachloride in rats; format: in vivo; details: blood 12 hours after final dose, X ± SD, n = 20
Method: 2. The Model of Acute Hepatic Toxicity Induced by Carbon Tetrachloride in Rats
Matured SD rats, male or female, weighing 250-350 g are used in the study. Animals are maintained with free access to standard rodent pellet food and water ad libitum.
All rats are randomly divided into 6 groups. All the other groups are treated with 0.5 ml/100 g of 50 percent carbon tetrachloride by hypodermic injection to induce acute hepatic toxicity model, except the control group, and are dosed one time simultaneously. Then all groups will be successively dosed at 4 hours and 8 hours, and the blood samples obtained at 12 hours after the final dose for determining ALT and AST. The animals are killed to measure their liver weight and to perform a pathological examination (Table 3).

[9] = test system: hepatic toxicity induced by D-galactosamine; test: Model of hepatic toxicity induced by D-galactosamine in rats; format: in vivo; details: D-galactosamine 800 mg/kg i.p. (Table 4), X ± SD, n = 20
Method: 3. The Model of Hepatic Toxicity Induced by D-Galactosamine in Rats […] Animals are maintained with free access to standard rodent pellet food and water ad libitum. All rats are randomly divided into 4 groups. All groups except the control group are treated simultaneously with 800 mg/kg of 50 percent D-galactosamine by intraperitoneal injection to induce acute hepatic toxicity model. The blood samples are obtained 12 hours after the final dose for determining SGPT and TBIL. The animals are killed to measure their liver weight and to perform a pathological examination (Table 4).

[10] = test system: liver fibrosis induced by carbon tetrachloride; test: Model of liver fibrosis induced by carbon tetrachloride in rats; format: in vivo, Wistar male rats; details: chronic carbon tetrachloride 12 weeks, treated one time a day for 8 weeks, X ± SD, n = 20
Method: 4. The Model of Liver Fibrosis Induced by Carbon Tetrachloride in Rats
Wistar male rats, weighing 100-150 g are used in the study. Animals are housed in an animal room with a 12 h: 12 h photoperiod and at 22° C. Animals are maintained with free access to standard rodent pellet food and water ad libitum
All Wistar male rats are treated with 0.3 ml/(100 g body weight) of 40 percent carbon tetrachloride (dissolved in peanut oil) by hypodermic injection twice a week for 12 weeks to induce […] hepatic fibrosis model, all in phase IV. Then all rats in hepatic fibrosis are randomly divided into the following groups: normal saline (NS) group, sample group and positive contrast group. The NS group rats are treated with 0.2 ml normal saline by intramuscular injection for 8 weeks, and simultaneously, all the other groups are treated with samples one time a day for 8 weeks. […] After that, all rats are killed, and the right lobes of the livers are fixed in neutral formaldehyde solution for histological examination.

[11] = test system: arrhythmia induced by aconitine; test: Arrhythmia induced by aconitine in rats; format: in vivo, Wistar rats; details: for preventive effects on arrhythmia induced by aconitine (in words): intravenously injected, aconitine dosage increased, VT/VF postponed
Method: The antagonistic effects of the dehydrocavidine species compounds on arrhythmia induced by aconitine
The samples are dissolved in hot normal saline up to the needed concentration. Normal saline serves as the control solution. Propafenone serves as a positive control sample.
Wistar rats of both sexes are randomly grouped and anesthetized by urethane (1.2 g/kg), II lead electrocardiogram is recorded. The groups are administered the following drugs by vena femoralis injection: (1) the compound (5 mg/kg, if possible 2.5 mg/kg), (2) propafenone (7 mg/kg), (3) control solution (2 mg/kg). After 5 minutes, aconitine solution (5 μg/ml) was delivered intravenously at a constant speed of 0.08 ml/min. The volume of aconitine solution is recorded when VP, VT and VF occur, and the electrocardiogram is also recorded. EV50 (VF) values are calculated by regression analysis on the basis of the dosage of aconitine consumed by VF in each experiment.

[12] = test system: central nervous system; details: in vivo; cited from earlier work
[13] = test system: smooth muscles of the intestines; details: cited from earlier work
[14] = test system: bacteria; details: cited from earlier work
[15] = normal mice; cited from earlier work
[16] = cited from earlier work
[17] = test system: gram-positive bacterium; details: in vitro; cited from earlier work

Row | SMILES | TC50 [3] | IC50 [4] | IC50 [5] | Toxicity to cell ([6]; concentration 0.1 μmol/ml) | Toxicity to cell ([6]; concentration 0.2 μmol/ml) | Toxicity to cell ([6]; concentration 0.4 μmol/ml) | Inhibition frequency to HBeAg (%) ([1]; concentration 0.1 μmol/ml) | Inhibition frequency to HBeAg (%) ([1]; concentration 0.2 μmol/ml) | Inhibition frequency to HBeAg (%) ([1]; concentration 0.4 μmol/ml) | Inhibition frequency to HBsAg (%) ([2]; concentration 0.1 μmol/ml) | Inhibition frequency to HBsAg (%) ([2]; concentration 0.2 μmol/ml) | Inhibition frequency to HBsAg (%) ([2]; concentration 0.4 μmol/ml) | Liver index (g liver wt./100 g body wt.) [7] | ALT [7] | AST [7] | ALT [8] | AST [8] | ALT [9] | AST [9] | Liver index (g liver wt./100 g body wt.) [9] | also measured
1 | Nc1ccn([C@@H]2CS[C@H](CO)O2)c(=O)n1 [3TC, reference compound] | – | – | – | – | – | – | – | – | – | – | – | – | – | – | – | – | – | – | – | – | Inhibition frequency to HBeAg (%) ([1]; concentration 1.0 μmol/ml): 24.5%; Inhibition frequency to HBsAg (%) ([2]; concentration 1.0 μmol/ml): 4.8%
2 | Cc1cn([C@H]2C[C@H](N=[N+]=[N-])[C@@H](CO)O2)c(=O)[nH]c1=O [AZT, zidouvding, reference compound] | 500 µg/mL (≈ 1870 µM) | 0.1 µg/mL (≈ 0.374 µM) | – | – | – | – | – | – | – | – | – | – | – | – | – | – | – | – | – | – | –
3 | NC(=O)c1ncn([C@@H]2O[C@H](CO)[C@@H](O)[C@H]2O)n1 [Ribavirin, reference compound] | – | – | 3.2 µM | – | – | – | – | – | – | – | – | – | – | – | – | – | – | – | – | – | –
4 | COc1cc2cc[n+]3cc4c5c(ccc4c(C)c3c2cc1O)OCO5 [dehydroapocavidine] | 250 µg/mL | 6.25 µg/mL | – | − (“no obvious toxicity” means cell livability ≧75% using MTT method) | − (“no obvious toxicity” means cell livability ≧75% using MTT method) | − (“no obvious toxicity” means cell livability ≧75% using MTT method) | 26.5% | 33.5% | 62.1% | 15.7% | 21.3% | 28.6% | 5.14 ± 0.48 g liver wt./100 g body wt. | 823.26 ± 178.42 | 241.13 ± 62.81 | 955.36 ± 327.18 | 903.52 ± 256.94 | 1027.10 ± 277.38 | 345.20 ± 68.29 | 4.47 ± 0.47 g liver wt./100 g body wt. | ALT [10]: 973.2 ± 273.5; AST [10]: 1057.1 ± 338.7; Hydroxy-prodine in Liver [10]: 0.175 ± 0.018; inhibitory effects on HIV viruses (in words) [4]: certain inhibitory effects on HIV viruses; inhibitory effects on influenza viruses (in words) [5]: markedly inhibitory effects on influenza viruses; preventive effects on arrhythmia induced by aconitine (in words) [11]: certain preventive effects on arrhythmia induced by aconitine; ED50 (10^−6 mol/Kg) ([11]; rats, vena femoralis injection, regression on aconitine dosage consumed by VF): 4.26 10^−6 mol/Kg
5 | COc1cc2c(cc1OC)-c1c(C)c3ccc4c(c3c[n+]1CC2)OCO4 [dehydrocavidine] | >1000 µg/mL | – | 7.4 µM | − (“no obvious toxicity” means cell livability ≧75% using MTT method) | − (“no obvious toxicity” means cell livability ≧75% using MTT method) | − (“no obvious toxicity” means cell livability ≧75% using MTT method) | 20.5% | 21.6% | 57.2% | 28.4% | 31.4% | 34.6% | 5.36 ± 0.54 g liver wt./100 g body wt. | 873.50 ± 251.82 | 237.10 ± 73.27 | 774.30 ± 217.11 | 1116.54 ± 348.27 | 846.28 ± 172.54 | 241.20 ± 65.53 | 5.10 ± 0.36 g liver wt./100 g body wt. | ALT [10]: 1113.4 ± 247.6; AST [10]: 987.3 ± 237.9; Hydroxy-prodine in Liver [10]: 0.162 ± 0.013; inhibitory effects on HIV viruses (in words) [4]: certain inhibitory effects on HIV viruses; IC50 ([4]; Human immunodeficiency virus 1, read-out: IC50): 12.5 µg/mL; inhibitory effects on influenza viruses (in words) [5]: markedly inhibitory effects on influenza viruses; ED50 ([11]; Rattus norvegicus, read-out: ED50 (10^−6 mol/Kg)): 7.33 µmol/kg; preventive effects on arrhythmia induced by aconitine (in words) [11]: certain preventive effects on arrhythmia induced by aconitine; effects on the central nervous system [12]: sedative effects on the central nervous system; effects on the smooth muscles of the intestines [13]: antispasm effects on the smooth muscles of the intestines; antibacterial effect in vitro [14]: antibacterial effect in vitro; effects on blood sugar levels [15]: no effects on the blood sugar levels in normal mice; production of glycogen in vivo [16]: effect on increasing the production of glycogen in vivo; inhibitory effect on gram-positive bacterium [17]: certain inhibitory effect on gram-positive bacterium

— patent US7732458B2 (priority 2004, dated 2010)
